The text below walks through data of patent publication US20120065614A1 (UNIVERSITY OF NORTH TEXAS, priority 2010, published 2012).

The nature of data set [1]: Time-resolved phosphorescence lifetime. The data set is classed as physicochemical. On the procedure: (§1) Photoluminescence characterization: All photoluminescence studies were carried with the PTI spectrofluorometer described below. For titrations, 2.5-mL aliquots were placed in the quartz cuvette and 0.1 mL of gel was added at every titration point with magnetic stirring. Titration data were plotted as I/Io vs. volume of gel added (where I=intensity of sample after addition of gel and 1o=intensity of pure aqueous gold phosphor solution). Lifetime data were analyzed using a xenon flash lamp or N2 laser systems for both the sample and a scatterer solution used to generate the instrument response function (IRF) used for deconvolution.

The conditions of data set [2]: cited from earlier work.
For data set [3] the following is noted: cited from earlier work; for emission band maximum: literature.
The conditions of data set [4]: solution, literature results, fitting error not given; cited from earlier work.
Data set [5] can be described thus: Steady-state photoluminescence spectra (emission/excitation maxima). In kind it is physicochemical. On the procedure:
as §1
Spectroscopic equipment: Steady-state luminescence spectra were acquired with a PTI QuantaMaster Model QM-4 scanning spectrofluorometer equipped with a 75-watt xenon lamp. The UVN is absorption spectra were measured at 1-nm resolution on either a diode array spectrometer (Hewlett-Packard, model 8543) or a Perkin-Elmer Lambda-900 double-beam UVN is/NIR absorption spectrophotometer.

Where two headings read alike, the source gives them in different places.

`O=S(=O)([O-])c1cccc([PH](c2cccc(S(=O)(=O)[O-])c2)(c2cccc(S(=O)(=O)[O-])c2)[Au]([PH](c2cccc(S(=O)(=O)[O-])c2)(c2cccc(S(=O)(=O)[O-])c2)c2cccc(S(=O)(=O)[O-])c2)[PH](c2cccc(S(=O)(=O)[O-])c2)(c2cccc(S(=O)(=O)[O-])c2)c2cccc(S(=O)(=O)[O-])c2)c1` [Na8[Au(TPPTS)3], tris[tris(3,3′,3″-trisulfonatophenyl)phosphine]aurate(I)]: the phosphorescence lifetime in data set [1] (after addition of PNIPAM hydrogels to the aqueous solution) came to 2.6 μs; in data set [1] (aqueous solution before addition of PNIPAM hydrogels), 1.4 μs. Moreover, the “τ, soln. (RT)” value in data set [1] (aqueous solution, RT) was 2.04 ± 0.02 μs (FIGS; in data set [4], 1.9 μs (fitting error not given). In addition, in data set [2], the water solubility result is given as “highly water soluble”. Moreover, the emission band maximum is on record as 486 nm in data set [3] (solid state at 77° K) and 494 nm in data set [3] (solid state at room temperature). The “PL, soln. (RT), emission” value in data set [3] (solution, RT, literature results (broad)) was 513 nm. For the same compound, the “PL, soln. (RT), excitation” value in data set [3] (solution, RT, literature results) is on record as 293 nm. The results for the excitation maximum in data set [5] (aqueous solution of 0.001M) and in data set [5] (solid state) were 292 nm and 356 nm, respectively. The compound further came in with an emission maximum in data set [5] (solid state) of 500 nm. The “PL, soln. (RT), emission, corrected” value in data set [5] (solution, RT, Corr.) is “nm exc.; 525 nm em”. Besides, the “PL, soln. (RT), excitation, corrected” value in data set [5] (solution, RT, Corr.) amounted to 285 nm. The “PL, soln. (RT), emission, uncorrected” value in data set [5] (solution, RT, Uncorr.) came out at 510 nm. Also, the “PL, soln. (RT), excitation, uncorrected” value in data set [5] (solution, RT, Uncorr.) is “Uncorr.: 296 nm exc.;”.
